Measurements published in PubChem BioAssay AID248 (DTP/NCI, 2004).
“And” between values parts separate entries of the source, which are not always exact repeats. Equal entries are not always repeated. Inconclusive results and toxic doses are left out.

System: L1210 leukemia ip in BDF1 mice, survival T/C
Experiment: NCI In Vivo Anticancer Drug Screen. Data for tumor model L1210 Leukemia (intraperitoneal) in B6D2F1 (BDF1) mice
Conditions: endpoint: mean survival time, higher = longer survival
Method in brief: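 Value reflects the ratio of survival in compound-treated mice to survival in vehicle-treated controls, with both groups carrying the same transplanted tumor.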

[1] = dose: 100.0 mg/kg/injection, schedule: Q01DX001 (ip), vehicle: other
[2] = dose: 200.0 mg/kg/injection, schedule: Q01DX001 (ip), vehicle: other
[3] = dose: 400.0 mg/kg/injection, schedule: Q01DX001 (ip), vehicle: other
[4] = dose: 100.0 mg/kg/injection, schedule: Q01DX001 (ip), vehicle: Klucel (hydroxypropylcellulose) (HPC)
[5] = dose: 200.0 mg/kg/injection, schedule: Q01DX001 (ip), vehicle: Klucel (hydroxypropylcellulose) (HPC)
[6] = dose: 400.0 mg/kg/injection, schedule: Q01DX001 (ip), vehicle: Klucel (hydroxypropylcellulose) (HPC)
[7] = dose: 100.0 mg/kg/injection, schedule: Q04DX003 (ip), vehicle: saline with Tween-80
[8] = dose: 200.0 mg/kg/injection, schedule: Q04DX003 (ip), vehicle: saline with Tween-80
[9] = dose: 100.0 mg/kg/injection, schedule: Q01DX009 (ip), vehicle: Klucel (hydroxypropylcellulose) (HPC)
[10] = dose: 200.0 mg/kg/injection, schedule: Q01DX009 (ip), vehicle: Klucel (hydroxypropylcellulose) (HPC)
[11] = dose: 400.0 mg/kg/injection, schedule: Q01DX009 (ip), vehicle: Klucel (hydroxypropylcellulose) (HPC)
[12] = dose: 100.0 mg/kg/injection, schedule: Q01DX009 (ip), vehicle: saline
[13] = dose: 100.0 mg/kg/injection, schedule: Q04DX003 (ip), vehicle: saline
[14] = dose: 200.0 mg/kg/injection, schedule: Q01DX009 (ip), vehicle: saline
[15] = dose: 200.0 mg/kg/injection, schedule: Q04DX003 (ip), vehicle: saline
[16] = dose: 400.0 mg/kg/injection, schedule: Q04DX003 (ip), vehicle: saline
[17] = dose: 100.0 mg/kg/injection, schedule: Q04DX003 (ip), vehicle: Klucel (hydroxypropylcellulose) (HPC)
[18] = dose: 200.0 mg/kg/injection, schedule: Q04DX003 (ip), vehicle: Klucel (hydroxypropylcellulose) (HPC)
[19] = dose: 400.0 mg/kg/injection, schedule: Q04DX003 (ip), vehicle: Klucel (hydroxypropylcellulose) (HPC)
[20] = dose: 400.0 mg/kg/injection, schedule: Q04DX003 (ip), vehicle: saline with Tween-80
[21] = dose: 100.0 mg/kg/injection, schedule: Q01DX001 (ip), vehicle: saline
[22] = dose: 200.0 mg/kg/injection, schedule: Q01DX001 (ip), vehicle: saline

CC(C)CNC(=O)c1cccc(-c2ccccc2C(=O)NCC(C)C)c1
T/C [1]: 91 % of control
T/C [2]: 93 % of control
T/C [3]: 96 % of control

O=C(O)C1=NNC(C(=O)O)=NN1
T/C [4]: 92 % of control
T/C [5]: 100 % of control
T/C [6]: 104 % of control

S=C(NCc1ccccc1)Nc1ccccc1
T/C [7]: 96 % of control
T/C [8]: 94 % of control

COc1ccc(CC(N)C(=O)OCc2ccccc2)cc1N(CCCl)CCCl (centres undefined)
T/C (dose: 0.08 mg/kg/injection, schedule: Q01DX009 (ip), vehicle: saline): 113 % of control
T/C (dose: 0.15 mg/kg/injection, schedule: Q01DX009 (ip), vehicle: saline): 118 % of control
T/C (dose: 0.3 mg/kg/injection, schedule: Q01DX009 (ip), vehicle: saline): 118 % of control
T/C (dose: 0.75 mg/kg/injection, schedule: Q01DX001 (ip), vehicle: saline): 110 % of control
T/C (dose: 1.5 mg/kg/injection, schedule: Q01DX001 (ip), vehicle: saline): 104 % of control
T/C (dose: 6.0 mg/kg/injection, schedule: Q01DX009 (ip), vehicle: saline): 93 % of control
T/C (dose: 12.5 mg/kg/injection, schedule: Q01DX001 (ip), vehicle: saline): 155 % of control

Cc1ccc(OCCO)cc1C
T/C (dose: 100.0 mg/kg/injection, schedule: Q04DX002 (ip), vehicle: Klucel (hydroxypropylcellulose) (HPC)): 120 % of control
T/C (dose: 200.0 mg/kg/injection, schedule: Q04DX002 (ip), vehicle: Klucel (hydroxypropylcellulose) (HPC)): 92 % of control
T/C (dose: 400.0 mg/kg/injection, schedule: Q04DX002 (ip), vehicle: Klucel (hydroxypropylcellulose) (HPC)): 92 % of control

NC(=S)NN=C1CCCCCCCCCCC1
T/C (dose: 50.0 mg/kg/injection, schedule: Q01DX001 (ip), vehicle: carboxymethylcellulose (CMC)): 106 % of control
T/C (dose: 100.0 mg/kg/injection, schedule: Q01DX001 (ip), vehicle: carboxymethylcellulose (CMC)): 98 % of control
T/C (dose: 200.0 mg/kg/injection, schedule: Q01DX001 (ip), vehicle: carboxymethylcellulose (CMC)): 95 % of control
T/C (dose: 400.0 mg/kg/injection, schedule: Q01DX001 (ip), vehicle: carboxymethylcellulose (CMC)): 88 % of control

O=C(/C=C/c1ccccc1)Nc1ccc(Cl)cc1C(=O)c1ccccc1
T/C [9]: 102 % of control
T/C [10]: 97 % of control
T/C [11]: 94 % of control

c1ccc(CN2CCCCc3ccccc32)cc1
T/C [7]: 93 % of control
T/C [8]: 88 % of control

O=C(N[C@@H](c1ccccc1)[C@H](N=Cc1ccccc1)c1ccccc1)c1ccccc1
T/C (dose: 50.0 mg/kg/injection, schedule: Q01DX009 (ip), vehicle: saline): 93 % of control
T/C (dose: 50.0 mg/kg/injection, schedule: Q04DX003 (ip), vehicle: saline): 95 % of control
T/C [12]: 90 % of control
T/C [13]: 86 % of control and 92 % of control
T/C [14]: 87 % of control
T/C [15]: 94 % of control
T/C (dose: 400.0 mg/kg/injection, schedule: Q01DX009 (ip), vehicle: saline): 95 % of control and 87 % of control
T/C [16]: 86 % of control and 92 % of control

CN=C(N)c1ccc(N=C(N)c2ccc(N=C(N)c3ccc(C(N)=NC)cc3)cc2)cc1
T/C (dose: 3.7 mg/kg/injection, schedule: Q01DX001 (ip), vehicle: water): 108 % of control
T/C (dose: 5.3 mg/kg/injection, schedule: Q01DX001 (ip), vehicle: water): 103 % of control
T/C (dose: 8.0 mg/kg/injection, schedule: Q01DX001 (ip), vehicle: water): 102 % of control
T/C (dose: 12.0 mg/kg/injection, schedule: Q01DX001 (ip), vehicle: water): 108 % of control

O=C(O)C1=C(C(=O)O)C2CCCC3C4CCCCC4N(N1)C23 (centres undefined)
T/C (dose: 75.0 mg/kg/injection, schedule: Q01DX001 (ip), vehicle: acetone): 117 % of control
T/C (dose: 150.0 mg/kg/injection, schedule: Q01DX001 (ip), vehicle: acetone): 104 % of control
T/C (dose: 300.0 mg/kg/injection, schedule: Q01DX001 (ip), vehicle: acetone): 118 % of control

CNC(=S)NN=C(c1ccccc1)c1ccccc1
T/C [4]: 95 % of control
T/C [9]: 91 % of control
T/C [17]: 93 % of control
T/C [5]: 90 % of control
T/C [10]: 89 % of control
T/C [18]: 87 % of control
T/C [6]: 87 % of control
T/C [11]: 93 % of control
T/C [19]: 96 % of control

Nc1nc2c(c(=O)[nH]1)N(CC(=O)O)C(CNc1ccc(C(=O)NC(CCC(=O)O)C(=O)O)cc1)CN2 (centres undefined)
T/C (dose: 100.0 mg/kg/injection, schedule: Q01DX001 (ip), vehicle: alkali diluted with saline): 94 % of control
T/C (dose: 200.0 mg/kg/injection, schedule: Q01DX001 (ip), vehicle: alkali diluted with saline): 93 % of control
T/C (dose: 400.0 mg/kg/injection, schedule: Q01DX001 (ip), vehicle: alkali diluted with saline): 96 % of control

CC(=N\N=C(N)N)/C(=N/N=C(N)N)c1ccccc1
T/C (dose: 3.75 mg/kg/injection, schedule: Q01DX Z (ip), vehicle: saline): 92 % of control
T/C (dose: 7.5 mg/kg/injection, schedule: Q01DX Z (ip), vehicle: saline): 96 % of control
T/C (dose: 15.0 mg/kg/injection, schedule: Q01DX Z (ip), vehicle: saline): 95 % of control and 102 % of control
T/C (dose: 30.0 mg/kg/injection, schedule: Q01DX Z (ip), vehicle: saline): 92 % of control
T/C (dose: 240.0 mg/kg/injection, schedule: Q01DX009 (oral), vehicle: saline): 88 % of control

O=S(=O)(Cc1ccccc1)C(Br)c1ccccc1 (centres undefined)
T/C [1]: 101 % of control
T/C [13]: 108 % of control
T/C [2]: 96 % of control
T/C [15]: 97 % of control
T/C [3]: 98 % of control
T/C [16]: 87 % of control

N/C(=N\O)c1ccc(Cl)cc1
T/C [7]: 104 % of control
T/C [8]: 98 % of control

CC#CS(=O)(=O)c1ccccc1
T/C [17]: 94 % of control
T/C [18]: 95 % of control
T/C [19]: 98 % of control

OC(C1CO1)(C(F)(F)F)C(F)(F)F (centres undefined)
T/C [12]: 98 % of control
T/C [7]: 92 % of control
T/C [14]: 106 % of control
T/C [8]: 91 % of control
T/C [20]: 97 % of control

CN(C)/C=N/NC(=O)C(O)(c1ccccc1)c1ccccc1
T/C (dose: 75.0 mg/kg/injection, schedule: Q01DX009 (ip), vehicle: Klucel (hydroxypropylcellulose) (HPC)): 105 % of control
T/C (dose: 150.0 mg/kg/injection, schedule: Q01DX009 (ip), vehicle: Klucel (hydroxypropylcellulose) (HPC)): 100 % of control
T/C (dose: 300.0 mg/kg/injection, schedule: Q01DX009 (ip), vehicle: Klucel (hydroxypropylcellulose) (HPC)): 95 % of control

C=CC(=O)c1ccccc1
T/C (dose: 25.0 mg/kg/injection, schedule: Q04DX002 (ip), vehicle: saline with Tween-80): 100 % of control
T/C (dose: 50.0 mg/kg/injection, schedule: Q04DX002 (ip), vehicle: saline with Tween-80): 87 % of control
T/C (dose: 100.0 mg/kg/injection, schedule: Q04DX002 (ip), vehicle: saline with Tween-80): 94 % of control

C=CC1CN2CCC1CC2C(=O)c1ccnc2ccc(OC)cc12 (centres undefined)
T/C (dose: 50.0 mg/kg/injection, schedule: Q01DX001 (ip), vehicle: saline): 98 % of control
T/C [21]: 102 % of control
T/C [22]: 95 % of control
T/C (dose: 400.0 mg/kg/injection, schedule: Q01DX001 (ip), vehicle: saline): 101 % of control

CNCc1nc2ccccc2c(C)[n+]1[O-]
T/C [13]: 97 % of control
T/C [15]: 97 % of control
T/C [16]: 95 % of control

CCCCCCCCCCCCCCCCC1(CC)NC(=O)NC1=O (centres undefined)
T/C [17]: 95 % of control
T/C [18]: 93 % of control
T/C [19]: 96 % of control

C=C1OC(=O)C(=O)N1CC(=O)O
T/C [21]: 103 % of control
T/C [22]: 106 % of control

OC1(c2ccccc2)c2ccccc2-c2ccccc21
T/C (dose: 100.0 mg/kg/injection, schedule: Q01DX009 (ip), vehicle: saline with Tween-80): 101 % of control
T/C [7]: 98 % of control
T/C (dose: 200.0 mg/kg/injection, schedule: Q01DX009 (ip), vehicle: saline with Tween-80): 106 % of control
T/C [8]: 93 % of control
T/C (dose: 400.0 mg/kg/injection, schedule: Q01DX009 (ip), vehicle: saline with Tween-80): 106 % of control
T/C [20]: 95 % of control
